Assay results published in US11421001B2, “Template-fixed peptidomimetics” (UNIVERSITAET ZUERICH, priority 2007, dated 2022).
Positions of bridges follow the written chain, without caps; N, C: chain ends. Non-standard residues stand in square brackets, D forms with d. Residues, ends and D or L forms follow the SMILES beside them. Dab = NCC[C@H](N)C(=O)O

Legend:
human CXCR4 = molecular target: T1, human CXCR4 (Homo sapiens, UniProt P61073); test: Ca2+ assay: CXCR4-antagonizing activity; format: cell-based; settings: mouse pre-B cell line 300-19 transfected with human CXCR4; calcium mobilization induced by 10 nM SDF-1; read-out: IC50 (nM) Ca2+ assay
T1 construct: expressed in transfected cells; host or cells: mouse pre-B cell line 300-19
Protocol: 2.2. Ca^2+− Assay: CXCR4-Antagonizing Activity of the Peptides.
Increases in intracellular calcium were monitored using a Flexstation 384 (Molecular Devices, Sunnyvale, Calif.) to assay the peptides for CXCR4 antagonism in a mouse pre-B cell line 300-19 stably transfected with human CXCR4 [see references 1, 2 and 3, below]. The cells were batch loaded with the Calcium 3 Assay kit (Molecular Devices) in assay buffer (Hanks Balanced salt solution, HBSS, 20 mM HEPES, pH 7.4, 0.1% BSA) for 1 h at room temperature and then 200,000 labeled cells were dispensed into black 96 well assays plates (Costar No. 3603). A 20-fold concentrated solution of peptide in assay buffer was added to the cells and the whole plate was centrifuged to settle the cells to the bottom of the wells. Calcium mobilization induced by 10 nM stromal-derived factor-1 (SDF-1) was measured in the Flexstation 384 (excitation, 485 […]) for 90 seconds. A maximal change in fluorescence response above baseline was used to calculate antagonist activity. The data for dose response curves (antagonist concentration versus % maximum response) were fitted to a four parameter logistic equation using SoftmaxPro 4.6 (Molecular Devices), from which IC50% values were calculated.

[1] = Cytotoxicity assay (MTT reduction); format: cell-based; settings: human, HELA cells (Acc57), peptides at 12.5, 25 and 50 μM, trend line, read-out: Cyto-toxicity LC50/GI50 Hela cells
Protocol: The cytotoxicity of the peptides to HELA cells (Acc57) and COS-7 cells (CRL-1651) was determined using the MTT reduction assay [see ref. 6 and 7, below]. Briefly the method was as follows: HELA cells and COS-7 cells were seeded at 7.0×10^3 and, respectively, 4.5×10^3 cells per well and grown in 96-well microtiter plates for 24 hours at 37° C. at 5% CO2. At this point, time zero (Tz) was determined by MTT reduction (see below). The supernatant of the remaining wells was discarded, and fresh medium and the peptides in serial dilutions of 12.5, 25 and 50 μM were pipetted into the wells. Each peptide concentration was assayed in triplicate. Incubation of the cells was continued for 48 hours at 37° C. at 5% CO2. Wells were then washed once with PBS and subsequently 100 μl MTT reagent (0.5 mg/mL in medium RPMI1640 and, respectively, DMEM) was added to the wells. This was incubated at 37° C. for 2 hours and subsequently the medium was aspirated and 100 μl isopropanol was added to each well. The absorbance at 595 nm of the solubilized product was measured (OD595peptide). For each concentration averages were calculated from triplicates. The percentage of growth was calculated as follows: (OD595peptide−OD595Tz−OD595Empty well)/(OD595Tz−OD595Empty well)×100% and was plotted for each peptide concentration. […]

[2] = tested on: CCRF-CEM cells, gradient of SDF-1; test: Chemotactic assay (cell migration assay); format: cell-based; settings: 1 nM SDF-1, 4 hours
Protocol: 2.7. Chemotactic Assay (Cell Migration Assay)
The chemotactic response of CCRF-CEM cells to a gradient of stromal cell-derived factor 1α (SDF-1) was measured using disposable assay plates from Neuroprobe (5μ pore size) (Gaithersburg, Md.), according to the manufacturer's directions and references therein [especially ref. 8, below]. Briefly, one […] flask was washed once with Dubecco's phosphate buffered saline (DPBS), and trypsinized for 10 minutes or until cells had lifted. The trypsin was neutralized by the addition of fresh medium containing serum and the cells were pelleted, washed once in DPBS, and resuspended at 1-0.5×10^7 cells/ml in RPMI+0.5% bovine serum albumin (BSA). 45 μl of cell suspension were mixed with 5 μl of 10-fold concentrated PEM peptide diluted in the same assay medium. 35 μl of this mixture were applied to the top of the assay filter. […] The optical absorbance at 595 nm (ABS595) was read using a Tecan Genios plate reader with Magellan software. The number of cells migrated was determined by comparing ABS595 values against a standard curve generated with a known number of cells in the assay plate and were plotted against SDF-1 concentration to obtain a sigmoidal curve and to determine the IC50 values. The values for IC50 were determined using the Trendline function in Microsoft Excel by fitting a logarithmic curve to the averaged datapoints.

[3] = Plasma stability, human plasma; format: in vitro ADME; settings: read-out: Stability human Plasma t1/2
[4] = Plasma stability, rat plasma; format: in vitro ADME; settings: read-out: Stability rat Plasma t1/2
[5] = tested on: hematopoietic progenitors (CFU-GM); test: Stem cell mobilisation, mice model (CFU-GM); format: in vivo, mouse; settings: C3H/HeJ mice, 5 mg/kg s.c.
From the text: The aim of the study was to evaluate the ability of the compound of Example 1 and Example 2 to mobilize hematopoietic progenitors from mouse bone marrow to peripheral blood using in-vitro hematopoietic colony assays. In humans, accurate information about progenitor cell mobilization is provided by the colony forming unit granulocyte-monocyte (CFU-GM) assay or by determining the abundance of CD34(+) cells by FACS analysis (see ref. 10 below). In mice, CD34 is not a useful marker for stem cells; instead the CFU-GM is more commonly used (see ref. 11 below).
In order to assess the ability of the compounds of Example 1 and Example 2 to mobilize murine stem cells (CFU-GM) C3H/HeJ female mice (Jackson Laboratory) were injected s.c. with 5 mg/k, of the compounds of Example 1 and of Example 2 and as reference AMD3100 (Broxmeyer, et al, J Exp Med 201, 1307-1318), (currently undergoing Phase III clinical trials) for stem cell mobilisation. Peripheral blood samples from 5 animals per test group were collected at each time point and nucleated cell counts performed as standard assays.

T1 sequence (P61073 whole entry): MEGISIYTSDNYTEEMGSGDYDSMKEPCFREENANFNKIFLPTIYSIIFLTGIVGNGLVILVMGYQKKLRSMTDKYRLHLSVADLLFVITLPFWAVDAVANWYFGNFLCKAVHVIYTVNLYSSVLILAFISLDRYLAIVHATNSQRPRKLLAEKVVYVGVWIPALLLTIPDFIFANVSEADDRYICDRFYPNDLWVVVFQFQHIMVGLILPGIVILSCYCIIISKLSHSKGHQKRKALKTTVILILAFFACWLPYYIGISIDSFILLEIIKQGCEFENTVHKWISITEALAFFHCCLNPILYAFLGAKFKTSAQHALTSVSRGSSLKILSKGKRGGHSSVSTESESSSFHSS

Which IC50 (human CXCR4) does the source give for C[C@@H]1NC(=O)[C@H](CO)NC(=O)[C@@H]2CSSC[C@H](NC(=O)[C@H](Cc3ccc(O)cc3)NC(=O)[C@H](CCCNC(=N)N)NC(=O)[C@H](CCN)NC(=O)[C@H]3CCCN3C1=O)C(=O)N[C@@H](Cc1ccc(O)cc1)C(=O)N[C@@H](CCC(N)=O)C(=O)N[C@@H](CCCCN)C(=O)N1CCC[C@@H]1C(=O)N1CCC[C@H]1C(=O)N[C@@H](Cc1ccc(O)cc1)C(=O)N[C@@H](Cc1c[nH]cn1)C(=O)N[C@@H](Cc1ccc(O)cc1)C(=O)N2 [Example 2] (cyclo(YHYCSA[dP][Dab]RYCYQK[dP]P); disulfide 4-11) here?
Its IC50 is 4.1 nM.

And the CC50 at 48 h [1]?
The CC50 at 48 h was 94 µM.

And the IC50 [2]?
The IC50 was 0.5 µM.

What about the half-life at 10 µM [3] of the same compound?
The half-life at 10 µM was > 5 h.

And the half-life at 10 µM [4]?
The half-life at 10 µM was > 5 h.

What about the “time of maximal effect on CFU-GM blood cell numbers” value [5] of the same compound?
Its value is 240 min.

And the “effect on CFU-GM blood cell numbers / progenitors over time” value ([5]; compared to control mice)?
The value was “increased the CFU-GM blood cell numbers up to six hours post administration”.
